Source: ChEMBL document CHEMBL5380876, “Non-fused imidazole-biphenyl analogs repress triple-negative breast cancer growth by mainly stabilizing the c-MYC G-quadruplex via a multi-site binding mode” (Bioorg Med Chem, 2023)
Active and inactive are the calls of the source. No cut-off for these calls is given here.

Tests used:
MDA-MB-231 [1] = test: Induction of apoptosis in human MDA-MB-231 cells assessed as increase in early apoptotic cells at 1 to 4 uM incubated for 24 hrs by Annexin-V FITC/PI double staining based flow cytometry analysis; format: functional, cell-based; conditions: dose 1-4 µM
MDA-MB-231 [2] = test: Cytotoxicity against human MDA-MB-231 cells assessed as inhibition of cell growth at 0 to 20 uM incubated for 72 hrs by CCK-8 assay; format: functional, cell-based; conditions: MDA-MB-231, 72 h
Quadruplex DNA [3] = test: Stabilization of c-MYC G4 quadruplex DNA (unknown origin) assessed as change in temperature incubated for 2 hrs in presence of HRAS by FRET assay; format: nucleic-acid assay
KYSE-30 = test: Cytotoxicity against human KYSE-30 cells assessed as reduction in cell viability by CCK8 assay; format: functional, cell-based
[4] = Cytotoxicity against human MCF-10A cells assessed as inhibition of cell proliferation by CCK-8 assay; format: toxicity, cell-based
MDA-MB-231 [5] = test: Downregulation of c-MYC expression in human MDA-MB-231 cells measured after 24 hrs by RT-PCR analysis; format: functional, cell-based; conditions: dose 1-4 µM
MDA-MB-231 [6] = test: Induction of apoptosis in human MDA-MB-231 cells assessed as decrease in necrotic cells at 1 to 4 uM incubated for 24 hrs by Annexin-V FITC/PI double staining based flow cytometric analysis; format: functional, cell-based; conditions: dose 1-4 µM
HEK293 = test: Downregulation of c-MYC expression in human HEK293 cells transfected with psiCHECK2 luciferase plasmid at 1 to 4 uM incubated for 24 hrs by dual luciferase reporter assay; format: functional, cell-based; conditions: dose 1-4 µM
MDA-MB-231 [7] = test: Induction of cell cycle arrest in human MDA-MB-231 cells assessed as accumulation of cells at G0/G1 phase at 2 uM incubated for 24 hrs by propidium iodide staining based flow cytometry analysis (reference value: 66.35%); format: functional
MDA-MB-231 [8] = test: Induction of cell cycle arrest in human MDA-MB-231 cells assessed as accumulation of cells at S phase at 4 uM incubated for 24 hrs by propidium iodide staining based flow cytometry analysis (reference value: 15.50%); format: functional
MDA-MB-231 [9] = test: Induction of cell cycle arrest in human MDA-MB-231 cells assessed as upregulation of p21 accumulation at 1 to 4 uM measured after 24 hrs by Western blot analysis; format: functional, cell-based; conditions: dose 1-4 µM
MDA-MB-231 [10] = test: Downregulation of c-MYC protein expression in human MDA-MB-231 cells at 1 to 4 uM measured after 24 hrs by Western blot analysis; format: functional, cell-based; conditions: dose 1-4 µM
MDA-MB-231 [11] = test: Inhibition of colony formation in human MDA-MB-231 cells assessed as reduction in number of visible cell colonies at 0.1 to 0.4 uM measured after 14 days by crystal violet based staining analysis; format: functional; conditions: dose 0.1-0.4 µM, time 14.0 day
Quadruplex DNA [12] = test: Binding affinity to c-MYC G4 quadraplex DNA (unknown origin) assessed as dissociation constant by fluorescence titration based analysis; format: nucleic-acid assay
HCC1806 = test: Cytotoxicity against human HCC1806 cells assessed as reduction in cell viability by CCK8 assay; format: functional, cell-based
MDA-MB-231 [13] = test: Cytotoxicity against human MDA-MB-231 cells assessed as inhibition of cell growth at 0 to 20 uM incubated for 24 hrs by CCK-8 assay; format: functional, cell-based; conditions: MDA-MB-231, 24 h
MDA-MB-231 [14] = test: Induction of cell cycle arrest in human MDA-MB-231 cells assessed as accumulation of cells at G2/M phase at 2 uM incubated for 24 hrs by propidium iodide staining based flow cytometry analysis (reference value: 17.58%); format: functional
Quadruplex DNA [15] = test: Stabilization of G4 quadruplex telomeric22 DNA (unknown origin) assessed as change in melting temperature by circular dichroism melting assay
MDA-MB-231 [16] = test: Induction of cell cycle arrest in human MDA-MB-231 cells assessed as accumulation of cells at G2/M phase at 4 uM incubated for 24 hrs by propidium iodide staining based flow cytometry analysis (reference value: 17.58%); format: functional
[17] = Toxicity in BALB/c mouse xenografted with human MDA-MB-231 cells assessed as effect on liver at 5 mg/kg, ip administered every other day for 20 days and measured every 4 days; format: organism-based; conditions: in vivo, 480 h, time 20 day
dsDNA = test: Stabilization of duplex DNA (unknown origin) assessed as change in melting temperature by circular dichroism melting assay
MDA-MB-231 [18] = test: Cytotoxicity against human MDA-MB-231 cells assessed as inhibition of cell growth at 0 to 20 uM incubated for 48 hrs by CCK-8 assay; format: functional, cell-based; conditions: MDA-MB-231, 48 h
[19] = Toxicity in BALB/c mouse xenografted with human MDA-MB-231 cells assessed as pain at 5 mg/kg, ip administered every other day for 20 days and measured every 4 days; format: organism-based; conditions: in vivo, 480 h, time 20 day
MDA-MB-231 [20] = test: Induction of autophagy in human MDA-MB-231 cells assessed as increase in fluorescence intensity of LC3B in cytoplasm at 4 uM measured after 24 hrs by immunofluorescence based analysis; format: functional, cell-based
MDA-MB-231 [21] = test: Induction of cell cycle arrest in human MDA-MB-231 cells assessed as accumulation of cells at sub-G1 phase at 4 uM incubated for 24 hrs by propidium iodide staining based flow cytometry analysis (reference value: 0.57%); format: functional
MDA-MB-231 [22] = test: Induction of cell cycle arrest in human MDA-MB-231 cells assessed as accumulation of cells at sub-G1 phase at 1 uM incubated for 24 hrs by propidium iodide staining based flow cytometry analysis (reference value: 0.57%); format: functional
MDA-MB-231 [23] = test: Induction of apoptosis in human MDA-MB-231 cells assessed as PARP cleavage at 1 to 4 uM incubated for 24 hrs by Western blot analysis; format: functional, cell-based; conditions: dose 1-4 µM
MDA-MB-231 [24] = test: Induction of cell cycle arrest in human MDA-MB-231 cells assessed as accumulation of cells at G2/M phase at 1 uM incubated for 24 hrs by propidium iodide staining based flow cytometry analysis (reference value: 17.58%); format: functional
Quadruplex DNA [25] = test: Stabilization of c-Myc G4 quadruplex DNA (unknown origin) assessed as temperature at which 50% protein unfold by circular dichroism melting assay; format: nucleic-acid assay
Quadruplex DNA [26] = test: Stabilization of c-MYC G4 quadruplex DNA Pu22 (unknown origin) assessed as temperature at which 50% protein unfold by circular dichroism melting assay; format: nucleic-acid assay
MDA-MB-231 [27] = test: Induction of cell cycle arrest in human MDA-MB-231 cells assessed as downregulation of Cdc2 expression at 1 to 4 uM incubated for 24 hrs by Western blot analysis; format: functional, cell-based; conditions: dose 1-4 µM
HeLa = test: Cytotoxicity against human HeLa cells assessed as reduction in cell viability by CCK8 assay; format: functional, cell-based

In the case of `CN1CCN(c2ccc(-c3nc(-c4ccc(-c5ccc(C(F)(F)F)cc5)cc4)[nH]c3-c3ccc(N4CCN(C)CC4)cc3)cc2)CC1`, the Activity (MDA-MB-231 [1]) is reported as “Active”, the IC50 (MDA-MB-231 [2]) is reported as 660 nM and the Activity (Quadruplex DNA [3]) is reported as “Active”. For the same molecule, the IC50 (KYSE-30) was 1310 nM, the IC50 [4] was 8700 nM and the Activity (MDA-MB-231 [5]) was “Dose-Dependent Effect”. For the same molecule, the Activity (MDA-MB-231 [6]) was “inactive”, the Activity (HEK293) was “Active” and the Activity (MDA-MB-231 [7]) was 76.42%. The Activity (MDA-MB-231 [8]) was 6.09%, the Activity (MDA-MB-231 [9]) was “Active” and the Activity (MDA-MB-231 [10]) was “Active”. For the same molecule, the inhibition (MDA-MB-231 [11]) was “Active”, the Kd (Quadruplex DNA [12]) was 2700 nM and the IC50 (HCC1806) was 1490 nM. The IC50 (MDA-MB-231 [13]) was 1840 nM, the Activity (MDA-MB-231 [14]) was 11.35% and the ΔTm (Quadruplex DNA [15]) was 0 °C. The Activity (MDA-MB-231 [16]) was 30.7%, the Activity [17] was “Non-Toxic” and the ΔTm (dsDNA) was 0 °C. For the same molecule, the IC50 (MDA-MB-231 [18]) was 870 nM, the Activity [19] was “Non-Toxic” and the Activity (MDA-MB-231 [20]) was “Active”. For the same molecule, the Activity (MDA-MB-231 [21]) was 44.98%, the Activity (MDA-MB-231 [22]) was 0.66% and the Activity (MDA-MB-231 [23]) was “Active”. For the same molecule, the Activity (MDA-MB-231 [24]) was 13.49%, the T (Quadruplex DNA [25]) was 34.6 °C and the T (Quadruplex DNA [26]) was 34.6 °C. For the same molecule, the Activity (MDA-MB-231 [27]) was “Active” and the IC50 (HeLa) was 2690 nM.
